Source: ChEMBL document CHEMBL1201862, “PubChem BioAssay data set” (2004)
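Exposure lasted 48 hours, with cells grown in 96-well plates and compounds tested at five concentrations. GI50 is the concentration that inhibits growth by half.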 Active and inactive are the calls of the source. Cut-off read from the data, not from the text of the source: active = GI50 up to about 1.1 µM and inactive = higher.

Tests used:
Experiment in all cases: growth of human tumour cells (NCI), 48 h
786-0 = test system: 786-0
A498 = test system: A498
A549 = test system: A549
ACHN = test system: ACHN
BT-549 = test system: BT-549
CCRF-CEM = test system: CCRF-CEM
COLO 205 = test system: COLO 205
DU-145 = test system: DU-145
EKVX = test system: EKVX
HCC 2998 = test system: HCC 2998
HCT-116 = test system: HCT-116
HCT-15 = test system: HCT-15
HL-60 = test system: HL-60
HOP-62 = test system: HOP-62
HOP-92 = test system: HOP-92
HT-29 = test system: HT-29
Hs-578T = test system: Hs-578T
IGROV-1 = test system: IGROV-1
K562 = test system: K562
KM12 = test system: KM12
LOX IMVI = test system: LOX IMVI
M14 = test system: M14
MCF7 = test system: MCF7
MDA-MB-231 = test system: MDA-MB-231
MDA-MB-435 = test system: MDA-MB-435
MDA-N = test system: MDA-N
MOLT-4 = test system: MOLT-4
Malme-3M = test system: Malme-3M
NCI-H23 = test system: NCI-H23
NCI-H460 = test system: NCI-H460
NCI-H522 = test system: NCI-H522
NCI/ADR-RES = test system: NCI/ADR-RES
OVCAR-3 = test system: OVCAR-3
OVCAR-5 = test system: OVCAR-5
OVCAR-8 = test system: OVCAR-8
PC-3 = test system: PC-3
RPMI-8226 = test system: RPMI-8226
RXF 393 = test system: RXF 393
SF-268 = test system: SF-268
SF-295 = test system: SF-295
SF-539 = test system: SF-539
SK-MEL-28 = test system: SK-MEL-28
SK-MEL-2 = test system: SK-MEL-2
SK-MEL-5 = test system: SK-MEL-5
SK-OV-3 = test system: SK-OV-3
SN12C = test system: SN12C
SNB-19 = test system: SNB-19
SNB-75 = test system: SNB-75
SR = test system: SR
SW-620 = test system: SW-620
T47D = test system: T47D
TK-10 = test system: TK-10
U-251 = test system: U-251
UACC-257 = test system: UACC-257
UACC-62 = test system: UACC-62
UO-31 = test system: UO-31

Cc1nc2ccccc2n1Cc1nnc(N)o1
GI50 (786-0): > 100 µM (inactive) | GI50 (A498): > 100 µM (inactive) | GI50 (A549): 53.3 µM (inactive) | GI50 (ACHN): > 100 µM (inactive) | GI50 (BT-549): > 100 µM (inactive) | GI50 (CCRF-CEM): > 100 µM (inactive) | GI50 (COLO 205): > 100 µM (inactive) | GI50 (DU-145): > 100 µM (inactive) | GI50 (EKVX): > 100 µM (inactive) | GI50 (HCC 2998): > 100 µM (inactive) | GI50 (HCT-116): > 100 µM (inactive) | GI50 (HCT-15): > 100 µM | GI50 (HL-60): > 100 µM (inactive) | GI50 (HOP-62): > 100 µM (inactive) | GI50 (HOP-92): > 100 µM (inactive) | GI50 (HT-29): > 100 µM (inactive) | GI50 (Hs-578T): > 100 µM (inactive) | GI50 (IGROV-1): > 100 µM (inactive) | GI50 (K562): > 100 µM (inactive) | GI50 (KM12): > 100 µM (inactive) | GI50 (LOX IMVI): > 100 µM (inactive) | GI50 (M14): > 100 µM (inactive) | GI50 (MCF7): > 100 µM (inactive) | GI50 (MDA-MB-231): > 100 µM (inactive) | GI50 (MDA-MB-435): 0.1 µM (active) | GI50 (MDA-N): > 100 µM (inactive) | GI50 (MOLT-4): > 100 µM (inactive) | GI50 (Malme-3M): > 100 µM (inactive) | GI50 (NCI-H23): > 100 µM (inactive) | GI50 (NCI-H460): > 100 µM (inactive) | GI50 (NCI-H522): > 100 µM (inactive) | GI50 (NCI/ADR-RES): > 100 µM (inactive) | GI50 (OVCAR-3): > 100 µM (inactive) | GI50 (OVCAR-5): > 100 µM (inactive) | GI50 (OVCAR-8): > 100 µM (inactive) | GI50 (PC-3): > 100 µM (inactive) | GI50 (RPMI-8226): > 100 µM (inactive) | GI50 (RXF 393): > 100 µM (inactive) | GI50 (SF-268): > 100 µM (inactive) | GI50 (SF-295): > 100 µM (inactive) | GI50 (SF-539): > 100 µM (inactive) | GI50 (SK-MEL-28): > 100 µM (inactive) | GI50 (SK-MEL-2): > 100 µM (inactive) | GI50 (SK-MEL-5): > 100 µM (inactive) | GI50 (SK-OV-3): > 100 µM (inactive) | GI50 (SN12C): > 100 µM (inactive) | GI50 (SNB-19): > 100 µM (inactive) | GI50 (SNB-75): > 100 µM (inactive) | GI50 (SR): > 100 µM (inactive) | GI50 (SW-620): > 100 µM (inactive) | GI50 (T47D): > 100 µM (inactive) | GI50 (TK-10): > 100 µM (inactive) | GI50 (U-251): > 100 µM (inactive) | GI50 (UACC-257): > 100 µM (inactive) | GI50 (UACC-62): > 100 µM (inactive) | GI50 (UO-31): > 100 µM (inactive)
